Source: patent US20080139664A1, “ANTI-GLYCATION AGENTS FOR PREVENTING AGE-, DIABETES-, AND SMOKING-RELATED COMPLICATIONS” (NATIONAL RESEARCH COUNCIL OF CANADA, priority 2001, published 2008)
Structures can show the parent of a compound that is named as a salt. Where two headings read alike, the source gives them in different places.

What was measured:
[1] = tested on: bovine serum albumin (BSA); assay: Maillard fluorescence-based assay of AGEs formation, IC50 determination (BSA + D-ribose); details: for IC50: inhibition of Maillard fluorescence development, 0.075 mM BSA, 50 mM D-ribose, 37° C., 5 days
Description: (§1) During the glycation reaction between proteins and reducing sugars, a specific fluorescence with excitation and emission wavelength of 370 nm and 440 nm, respectively, is observed. […] The assay was based on the progressive development of the characteristic Maillard fluorescence (370 nm Ex and 440 nm Em) during the progress of the glycation reaction.
(§2) The final assay volume was 200 μl and each assay well contained 0.075 mM BSA, and 50 mM D-ribose. Compounds were assayed at 3 different concentration levels (0.003, 0.03, and 0.3 mg/mL) to determine the effect of concentration on inhibition. Samples were incubated for 5 days.
(§3) The Maillard fluorescence was directly measured from the reaction solution, except for the anti-glycants that quenched the Maillard fluorescence, which were analyzed by the earlier-described HPLC method.
(§4) Solutions were incubated in microtitre plates (96 wells) at 37° C. for 5 days in a closed system.
(§5) After one hour incubation at 37° C., fluorescence readings were taken.
(§6) The IC50 values of the compounds that quenched the fluorescence of the glycated BSA were analyzed by on-line monitoring of the fluorescence of the glycated BSA separated from the fluorescence quenching assay compound by RP-HPLC. The elution profile was monitored by UV-diode array and by fluorescence (λex=370 nm, λem=440 nm). […] The incubation conditions were the same as above.

[2] = tested on: bovine serum albumin (BSA)
Description: as §1, §2, §3, §4, §5, §6

lysozyme = assay: ESI-MS of lysozyme glycoforms after incubation with D-ribose; details: 37° C., 5 days; for Peak area as % of total area of all glycoforms, 14,569: lysozyme + 2D-ribose − 2H2O (14,569 Da); for Peak area as % of total area of all glycoforms, 14,551: lysozyme + 2D-ribose − 3H2O (14,551 Da); for Peak area as % of total area of all glycoforms, 14,533: lysozyme + 2D-ribose − 5H2O (14,533 Da); for Peak area as % of total area of all glycoforms, 14,515: lysozyme + 2D-ribose − 6H2O (14,515 Da); for Peak area as % of total area of all glycoforms, 14,419: lysozyme + D-ribose − 2H2O (14,419 Da); for Peak area as % of total area of all glycoforms, 14,401: lysozyme + D-ribose − 3H2O (14,401 Da); for Peak area as % of total area of all glycoforms, 14,437: lysozyme + D-ribose − H2O (14,437 Da); for Peak area as % of total area of all glycoforms, 14,496: lysozyme + D-ribose − H2O with one carboxymethylated Lys residue (14,496 Da); for Peak area as % of total area of all glycoforms, 14,364: lysozyme with one carboxymethylated Lys residue (14,364 Da); for Peak area as % of total area of all glycoforms, 14,305: unmodified lysozyme (14,305 Da);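 for all read-outs here: lysozyme incubated with D-ribose, with or without anti-glycation agents, then separated by reversed-phase HPLC and analysed by electrospray mass spectrometry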
Description: The effect of anti-glycation agents on the accumulation of glycated forms (glycoforms) of protein was evaluated by using electrospray mass spectrometry (ESI-MS). As the molecular mass of BSA was too large to monitor the small mass changes of its glycoforms, lysozyme was incubated with D-ribose and anti-glycants. Lysozyme and its glycoforms were isolated by RP-HPLC and analyzed by mass spectrometry.
Samples of lysozyme (0.756 mM; 4.54 mM of Lys residues) and D-ribose (50 mM) were incubated in the presence and absence of the selected anti-glycation agents at 37° C. for 5 days and subjected to electrospray mass spectrometry (ESI-MS) in order to characterize the protein intermediates as well as carboxymethylated lysozyme. Prior to MS measurements, the proteins were isolated by reversed phase-HPLC and were semi-dried by freeze drying.

## O=[N+]([O-])c1cc(I)c(O)c(I)c1 [2,6-Diiodo-4-nitrophenol]
[1]
  IC50: 1300 µM

## O=[N+]([O-])c1ccc(O)c(Cl)c1 [2-Chloro-4-nitrophenol]
[2]
  IC50: 3500 µM

## O=[N+]([O-])c1ncc[nH]1 [2-Nitroimidazole]
[1]
  IC50: > 4000 µM

## O=c1c(O)c(-c2ccc(O)c(O)c2)oc2ccccc12 [3,3′,4′-Trihydroxyflavone]
[1]
  IC50: 1800 µM

## COCC(N)c1ccc(O)c(O)c1 (stereo not drawn) [3,4-Dihydroxy-1-[(α-amino-β-methoxy)ethyl]benzene]
[1]
  IC50: 78 µM

## CC(CCc1ccccc1)NC(CO)c1ccc(O)c(O)c1 (stereo not drawn) [3,4-Dihydroxy-1-[α-(1-methyl-3-phenyl-propylamino)-β-hydroxyethyl]benzene hydrochloride]
[1]
  IC50: 350 µM

## COC(CNC(C)C)c1ccc(O)c(O)c1 (stereo not drawn) [3,4-Dihydroxy-1-[α-isopropylamino-β-methoxy)ethyl]benzene]
[1]
  IC50: 78 µM

## N[C@@H](Cc1cc(I)c(O)c(I)c1)C(=O)O [3,5-Diiodo-L-tyrosine]
[1]
  IC50: 1500 µM

## NC(=O)c1cc([N+](=O)[O-])cc([N+](=O)[O-])c1 [3,5-Dinitrobenzamide]
[1]
  IC50: 780 µM

## O=c1cc(-c2ccc(O)c(O)c2)oc2ccccc12 [3′.4′-Dihydroxyflavone]
[1]
  IC50: 2600 µM

## Nc1ccc(C(=O)O)c(O)c1 [4-Amino-salicylic acid]
[1]
  IC50: > 4000 µM

## O=c1cc(-c2ccc(O)c(O)c2)oc2cccc(O)c12 [5,3′,4′-Trihydroxyflavone]
[2]
  IC50: 1600 µM

## O=c1cc(-c2cccc(O)c2)oc2cc(O)c(O)cc12 [6,7,3′-Trihydroxyflavone]
[1]
  IC50: 940 µM

## NCCc1cc(O)c(O)cc1O [6-Hydroxydopamine]
[1]; Maillard fluorescence, listed if significantly lower than 100%
  maximum percentage of the inhibition: 65%)
[1]
  IC50: 95 µM

## COc1ccc(-c2cc(=O)c3c(O)cc(O)cc3o2)cc1 [Acacetin]
[1]
  IC50: 510 µM

## O=c1cc(-c2ccc(O)cc2)oc2cc(O)cc(O)c12 [Apigenin]
[2]
  IC50: 130 µM

## COc1cccc2c1cc([N+](=O)[O-])c1c(C(=O)O)cc3c(c12)OCO3 [Aristolochic acid]
[2]
  IC50: > 4000 µM

## Cn1cnc([N+](=O)[O-])c1Sc1ncnc2nc[nH]c12 [Azathioprine]
[2]
  IC50: 400 µM

## Nc1c(Cl)cc([N+](=O)[O-])cc1Cl [Botran]
[2]
  IC50: > 4000 µM

## Oc1c(Br)cc(Br)c2cccnc12 [Broxyquinoline]
lysozyme
  Peak area as % of total area of all glycoforms, 14,569: 5.7%
  Peak area as % of total area of all glycoforms, 14,551: 4.7%
  Peak area as % of total area of all glycoforms, 14,533: 3.2%
  Peak area as % of total area of all glycoforms, 14,515: 1.7%
  Peak area as % of total area of all glycoforms, 14,419: 7.2%
  Peak area as % of total area of all glycoforms, 14,401: 4.9%
  Peak area as % of total area of all glycoforms, 14,437: 21.0%
  Peak area as % of total area of all glycoforms, 14,496: 1.5%
  Peak area as % of total area of all glycoforms, 14,364: 2.5%
  Peak area as % of total area of all glycoforms, 14,305: 42.2%
[2]
  IC50: 390 µM

## O=C(N[C@H](CO)[C@H](O)c1ccc([N+](=O)[O-])cc1)C(Cl)Cl [Chloramphenicol]
[2]
  IC50: 1300 µM

## Oc1c(Cl)cc(Cl)c2cccnc12 [Chloroxine]
[2]
  IC50: 1400 µM

## O=c1cc(-c2ccccc2)oc2cc(O)cc(O)c12 [Chrysin]
[2]
  IC50: 2100 µM

## COc1cc(/C=C/C(=O)CC(=O)/C=C/c2ccc(O)c(OC)c2)ccc1O [Curcumin]
[2]
  IC50: 1100 µM

## O=c1c(-c2ccc(O)cc2)coc2cc(O)ccc12 [Daidzein]
[2]
  IC50: > 4000 µM

## Cc1ncc([N+](=O)[O-])n1C [Dimetridazole]
[2]
  IC50: 460 µM

## Cc1c(C(N)=O)cc([N+](=O)[O-])cc1[N+](=O)[O-] [Dinitolmide]
lysozyme
  Peak area as % of total area of all glycoforms, 14,569: 4.9%
  Peak area as % of total area of all glycoforms, 14,551: 3.6%
  Peak area as % of total area of all glycoforms, 14,533: 2.6%
  Peak area as % of total area of all glycoforms, 14,515: 1.3%
  Peak area as % of total area of all glycoforms, 14,419: 7.4%
  Peak area as % of total area of all glycoforms, 14,401: 0.0%
  Peak area as % of total area of all glycoforms, 14,437: 22.6%
  Peak area as % of total area of all glycoforms, 14,496: 0.0%
  Peak area as % of total area of all glycoforms, 14,364: 3.0%
  Peak area as % of total area of all glycoforms, 14,305: 51.7%
[2]
  IC50: 340 µM

## C[C@H]1c2cccc(O)c2C(=O)C2=C(O)[C@]3(O)C(=O)C(C(N)=O)=C(O)[C@@H](N(C)C)[C@@H]3[C@@H](O)[C@@H]21 [Doxycycline]
[2]
  IC50: 33 µM

## Cc1cc(O)c2c(c1)C(=O)c1cc(O)cc(O)c1C2=O [Emodin]
[2]
  IC50: 3000 µM

## O=C(Cn1ccnc1[N+](=O)[O-])NCCO [Etanidazole]
[2]
  IC50: 450 µM

## CC(C)C(=O)Nc1ccc([N+](=O)[O-])c(C(F)(F)F)c1 [Flutamide]
[2]
  IC50: 1300 µM

## Oc1ccc(O)cc1 [Hydroquinone]
[2]
  IC50: 250 µM

## NC(=O)NO [Hydroxyurea]
[2]
  IC50: > 4000 µM

## CC(C(O)c1ccc(O)cc1)N1CCC(Cc2ccccc2)CC1 (stereo not shown) [Ifenprodil]
[2]
  IC50: > 4000 µM

## COc1ccc2c(c1)c(CC(=O)O)c(C)n2C(=O)c1ccc(Cl)cc1 [Indomethacin]
lysozyme
  Peak area as % of total area of all glycoforms, 14,569: 3.5%
  Peak area as % of total area of all glycoforms, 14,551: 3.3%
  Peak area as % of total area of all glycoforms, 14,533: 1.6%
  Peak area as % of total area of all glycoforms, 14,515: 0.0%
  Peak area as % of total area of all glycoforms, 14,419: 7.5%
  Peak area as % of total area of all glycoforms, 14,401: 0.5%
  Peak area as % of total area of all glycoforms, 14,437: 18.6%
  Peak area as % of total area of all glycoforms, 14,496: 0.0%
  Peak area as % of total area of all glycoforms, 14,364: 5.1%
  Peak area as % of total area of all glycoforms, 14,305: 58.0%

## O=c1cc(CO)occ1O [Kojic acid]
[2]
  IC50: > 4000 µM

## CC(C)=CCC1=C(O)C(=O)c2ccccc2C1=O [Lapachol]
[2]
  IC50: 320 µM

## Cc1ncc([N+](=O)[O-])n1CCO [Metronidazole]
[2]
  IC50: 660 µM

## CN(C)c1ccc(O)c2c1C[C@H]1C[C@H]3[C@H](N(C)C)C(O)=C(C(N)=O)C(=O)[C@@]3(O)C(O)=C1C2=O [Minocycline]
[2]
  IC50: 46 µM

## O=c1c(O)c(-c2cc(O)c(O)c(O)c2)oc2cc(O)cc(O)c12 [Myricetin]
lysozyme
  Peak area as % of total area of all glycoforms, 14,569: 0.0%
  Peak area as % of total area of all glycoforms, 14,551: 0.0%
  Peak area as % of total area of all glycoforms, 14,533: 0.0%
  Peak area as % of total area of all glycoforms, 14,515: 0.0%
  Peak area as % of total area of all glycoforms, 14,419: 1.8%
  Peak area as % of total area of all glycoforms, 14,401: 0.0%
  Peak area as % of total area of all glycoforms, 14,437: 17.7%
  Peak area as % of total area of all glycoforms, 14,496: 0.0%
  Peak area as % of total area of all glycoforms, 14,364: 1.6%
  Peak area as % of total area of all glycoforms, 14,305: 78.9%
[2]
  IC50: 54 µM
  maximum percentage of the inhibition: 64%)

## O=C1C[C@@H](c2ccc(O)cc2)Oc2cc(O)cc(O)c21 [Naringenin]
lysozyme
  Peak area as % of total area of all glycoforms, 14,569: 4.9%
  Peak area as % of total area of all glycoforms, 14,551: 3.1%
  Peak area as % of total area of all glycoforms, 14,533: 1.8%
  Peak area as % of total area of all glycoforms, 14,515: 0.0%
  Peak area as % of total area of all glycoforms, 14,419: 7.5%
  Peak area as % of total area of all glycoforms, 14,401: 0.0%
  Peak area as % of total area of all glycoforms, 14,437: 24.4%
  Peak area as % of total area of all glycoforms, 14,496: 0.0%
  Peak area as % of total area of all glycoforms, 14,364: 0.1%
  Peak area as % of total area of all glycoforms, 14,305: 56.8%
[2]
  IC50: 220 µM

## COC(=O)C1=C(C)NC(C)=C(C(=O)OCCN(C)Cc2ccccc2)C1c1cccc([N+](=O)[O-])c1 (stereo not shown) [Nicardipine]
[2]
  IC50: > 4000 µM

## COCCOC(=O)C1=C(C)NC(C)=C(C(=O)OC(C)C)C1c1cccc([N+](=O)[O-])c1 (stereo not shown) [Nimodipine]
[2]
  IC50: > 4000 µM

## O=C1CN(/N=C/c2ccc([N+](=O)[O-])o2)C(=O)N1 [Nitrofurantoin]
[2]
  IC50: 44 µM
  maximum percentage of the inhibition: 40%)

## O=[N+]([O-])c1cccc(SSc2cccc([N+](=O)[O-])c2)c1 [Nitrophenide]
[2]
  IC50: 4000 µM

## COC(=O)c1ccc(O)c(N)c1 [Orthoform]
[2]
  IC50: 2100 µM

## O=S1(=O)OC(c2ccc(O)cc2)(c2ccc(O)cc2)c2ccccc21 [Phenol red]
[2]
  IC50: 1800 µM

## CN1C(C(=O)Nc2ccccn2)=C(O)c2ccccc2S1(=O)=O [Piroxicam]
[2]
  IC50: 730 µM

## CNC(=C[N+](=O)[O-])NCCSCc1ccc(CN(C)C)o1 [Ranitidine]
[2]
  IC50: 1100 µM

## CO[C@H]1/C=C/O[C@@]2(C)Oc3c(C)c(O)c4c(O)c(c(/C=N/N5CCN(C)CC5)c(O)c4c3C2=O)NC(=O)/C(C)=C\C=C\[C@H](C)[C@H](O)[C@@H](C)[C@@H](O)[C@@H](C)[C@H](OC(C)=O)[C@@H]1C [Rifampicin]
[2]
  IC50: 120 µM

## CC(NCCc1ccc(O)cc1)C(O)c1ccc(O)cc1 (stereo not shown) [Ritodrine]
[2]
  IC50: > 4000 µM

## COc1cc(C2Oc3cc([C@H]4Oc5cc(O)cc(O)c5C(=O)[C@@H]4O)ccc3OC2CO)ccc1O (stereo partly shown) [Silibinin]
[2]
  IC50: 750 µM

## O=C(O)c1cc(/N=N/c2ccc(S(=O)(=O)Nc3ccccn3)cc2)ccc1O [Sulfasalazine]
lysozyme
  Peak area as % of total area of all glycoforms, 14,569: 4.7%
  Peak area as % of total area of all glycoforms, 14,551: 4.7%
  Peak area as % of total area of all glycoforms, 14,533: 2.1%
  Peak area as % of total area of all glycoforms, 14,515: 1.3%
  Peak area as % of total area of all glycoforms, 14,419: 8.2%
  Peak area as % of total area of all glycoforms, 14,401: 2.7%
  Peak area as % of total area of all glycoforms, 14,437: 20.6%
  Peak area as % of total area of all glycoforms, 14,496: 1.5%
  Peak area as % of total area of all glycoforms, 14,364: 2.9%
  Peak area as % of total area of all glycoforms, 14,305: 47.2%

## CNCC(O)c1ccc(O)cc1 (stereo not shown) [Synephrine]
[2]
  IC50: > 4000 µM

## CC(C)(C)NCC(O)c1cc(O)cc(O)c1 (stereo not shown) [Terbutaline]
[2]
  IC50: > 4000 µM

## CCS(=O)(=O)CCn1c([N+](=O)[O-])cnc1C [Tinidazole]
[2]
  IC50: 700 µM

## CC1=C(/C=C/C(C)=C/C=C/C(C)=C/C=C/C=C(C)/C=C/C=C(C)/C=C/C2=C(C)CCCC2(C)C)C(C)(C)CCC1 [beta-Carotene]
[2]
  IC50: 630 µM
